{"source": "patent US20140011755A1", "about": "“Cardiac Glycosides for Treating Autoimmune Disease” (Department of Veterans Affairs, priority 2010, published 2014)", "key": {"[1]": {"conditions": "CHCI3/16% aqueous methanol (MeOH); cited from earlier work"}, "[2]": {"conditions": "cited from earlier work"}, "[3]": {"test_system": "TNF-mediated NFκB activity in HeLa cells", "assay": "NFκB luciferase reporter assay in TNF-stimulated HeLa cells", "type": "cell-based", "conditions": "pre-treatment 6 hours with 0-500 nM, 50 ng/mL TNF", "protocol": "FIG. 8. […] Values represent mean light units produced. Error bars represent SEM, and statistical significance was determined by unpaired T-test. Single and double asterisks represent P-values of 0.01 or 0.001, respectively. […] Samples were harvested at designated time points and were fractionated into nuclear and cytoplasmic lysates (Pierce). Lysates were quantified using BCA (Pierce), and were equally loaded according to total protein. Membranes were probed for levels of nuclear phospho-p65 (ReIA), phospho-ReIB, and histone (histone served as loading control and fractionation method control) and cytoplasmic degradation of IκBα (beta-tubulin served as loading control and fractionation method control).\nHeLa cells were co-transfected with the reporter pNFκB-luc and control vector pTAL (Renilla) for 18 h prior to incubation with 0-500 nM cardiac glycoside for 6 h. Cells are stimulated with 50 ng/mL TNF. […] FIG. 8 B)."}, "[4]": {"assay": "Serum concentration obtained with experimental dosing regimen, mouse", "type": "in vivo", "conditions": "0.2 mg/kg per diem, i.p., experimentally determined", "protocol": "Dosing regimens in humans vary according to the cardiac glycoside and constitution thereof. Table 3 depicts representative dosing regimens reported in the literature compared to experimental regiments used in mice that are representative of human dosing. Successful dosing detailed in this application includes but is not limited to 0.03-0.4 mg/kg., or from 0.001 to 5 mg/kg."}, "[5]": {"test_system": "collagen-induced arthritis (CIA) joints", "type": "in vivo, DBA1/J mice", "conditions": "cross-sectioned ankle joints, CIA prevention groups", "protocol": "FIG. 7. Cardiac glycosides reduce joint pathology in the CIA mouse model for rheumatoid arthritis. Blinded scoring was performed on histologic sections of joints harvested from mice at the end of a CIA prevention study (A-C). Joints derived from three representative mice belonging to each prevention group (A-C) were decalcified, fixed and stained with tolidine blue, followed by scoring by an examiner blinded to treatment status for the severity of synovitis (inflammation), pannus (growth of the synovial lining), and erosions of bone. (D-G) Joints derived from three representative mice belonging to each prevention group were decalcified, fixed, and stained with hematoxylin and eosin. Cross-sectioned ankle joints from vehicle (D), digitoxin (E), ouabain (F) and proscillaridin (G) treated mice are presented. Error bars represent SEM, and asterisks indicate P-values less than 0.05 by Mann-Whitney test.\nIn treatment studies, mice were randomly enrolled in treatment groups and treatment commenced when the average clinical score was at or above 2. […] Daily dosing commenced upon enrollment at the abovementioned concentrations. […] Double-blinded histopathology scoring was conducted of cross-sectioned joints taken from cardiac glycoside and vehicle recipients. […] The results obtained from these animal studies indicate that cardiac glycosides are effective at reducing the clinical manifestations of disease and reducing joint pathology in mice with collagen arthritis.\nThe effects of the different cardiac glycoside treatments on CIA pathology was analyzed by histological scoring. Inflammatory cell infiltrate, synovial hyperplasia, pannus formation and articular cartilage and bone deterioration were evaluated in sectioned paws of treated mice at specific time-points throughout the disease course. […] The ELISA was developed and read using BD ELISA development kit. […]"}, "[6]": {"test_system": "collagen-induced arthritis (CIA)", "type": "in vivo, DBA1/J mice", "conditions": "for development of CIA (Mean Visual Arthritis Score, Mean Paw Thickness), prevention study: daily i.p. from the day prior to induction, ouabain 0.03 mg/kg; for average clinical arthritis scores compared to vehicle, prevention study: first dose one day prior to boost, 0.3 mg/kg digitoxin, 0.03 mg/kg ouabain, […] proscillaridin, 0.35 mg/kg digoxin, […] bufalin, 15 mice per group; for prevention and treatment of collagen-induced arthritis (CIA): murine model for rheumatoid arthritis, summary statement"}, "[7]": {"conditions": "injectable versus other formulations; cited from earlier work"}, "[8]": {"test_system": "TNF, IL-6 and IL-1beta", "assay": "Serum cytokine ELISA in CIA treatment groups", "type": "in vivo", "conditions": "serum from 3 mice per treatment group, ELISA in triplicate", "from_the_text": "FIG. 9. Serum cytokine levels are similar between vehicle and cardiac glycoside treatment groups. […] The unpaired student t-test was used to assess significance."}, "[9]": {"test_system": "anti-type II collagen antibodies", "type": "in vivo", "conditions": "sera of 6 mice per prevention group, ANOVA", "protocol": "FIG. 10. Cardiac glycosides reduce immunoglobulin levels in CIA mice. ELISAs for anti-type II collagen antibodies were performed on sera derived from 6 representative mice of each prevention group (A, B). Isotype specific antibodies for IgG1 and IgG2a (A) and IgM (B) were utilized. […] Statistical analysis was performed using ANOVA and asterisks indicate points at which the P-values were less than 0.001.\nThe effects of the different cardiac glycoside treatments on CIA pathology was analyzed by histological scoring. Inflammatory cell infiltrate, synovial hyperplasia, pannus formation and articular cartilage and bone deterioration were evaluated in sectioned paws of treated mice at specific time-points throughout the disease course. Histopathology scores of inflammation, pannus formation and bone and cartilage erosions were conducted by a blinded investigator on toludine blue-stained cross sections of fixed leg joints from representative mice in vehicle and glycoside groups. Pathology scoring for each of the three categories are on a scale of 0-4 with grade 0=normal, 1=mild inflammation, hyperplasia of the synovial lining, cartilage destruction without bone erosion, grades 2 to 4=increasing degrees of inflammatory cell infiltrate, synovial hyperplasia, pannus formation and cartilage and bone destruction. Error bars represent SEM and statistics were performed using the Mann-Whitney test. At the endpoint, mice are bled and serum is collected from representative mice and stored at −80 C until use. To determine anti-collagen II antibody levels and to characterize isotype prevalence, bovine collagen II (Chondrex) was coated O/N at 4 C on an ELISA plate, washed and incubated with 100 uL of 1:10 dilution of each serum sample (in triplicate) for 2 h at RT. Wells were washed and incubated with anti-mouse IgM u-chain specific (Jackson), anti-mouse IgG1, or anti-mouse IgG2a (Southern Biotech) for 1 h at RT. The ELISA was developed and read using BD ELISA development kit. Statistical analysis was performed using the two-tailed ANOVA and asterisks represent P-values less than 0.01."}, "[10]": {"test_system": "T cell receptor", "type": "cell-based, mice", "conditions": "non-TNFR family member; therapeutic concentrations", "protocol": "(§1) Activity was monitored by ^3H-thymidine incorporation as a read-out for proliferation. […] Cell type(s) in the splenocyte population responsive to therapeutic concentrations of cardiac glycoside were determined by identifying the population of cells that responded to a dose-dependent decrease in activity in the presence of stimulant, defined as ligand(s) binding to cognate receptor(s). Activity was analyzed by: ^3H-thymidine or BrdU incorporation to monitor proliferation or by ELISA to monitor cytokine production. Splenic T lymphocytes were isolated by negative selection (MACS, Miltinyi Biotec) and are stimulated with PMA, ConA or through the TCR with anti-CD3/anti-CD28 Dynabeads (Invitrogen) and collagen II (all non-TNFR receptors/pathways). […] Peritoneal and bone marrow-derived macrophages were isolated from CIA mice in the presence of M-CSF growth factor and were stimulated with TNF and CD40 ligand (CD40L). […] Splenic B lymphocytes were isolated by negative selection (MACS, Miltinyi Biotec) and were stimulated with BAFF (BLyS), CD40L or through the BCR with anti-IgM u-chain specific antibodies."}, "[11]": {"target": "T1, CD40 (Mus musculus, UniProt P27512)", "T1 construct": "Peritoneal and bone marrow-derived macrophages were isolated from CIA mice; endogenous in cells; host or cells: peritoneal and bone marrow-derived macrophages from CIA mice", "T1 sequence (P27512 20-289)": "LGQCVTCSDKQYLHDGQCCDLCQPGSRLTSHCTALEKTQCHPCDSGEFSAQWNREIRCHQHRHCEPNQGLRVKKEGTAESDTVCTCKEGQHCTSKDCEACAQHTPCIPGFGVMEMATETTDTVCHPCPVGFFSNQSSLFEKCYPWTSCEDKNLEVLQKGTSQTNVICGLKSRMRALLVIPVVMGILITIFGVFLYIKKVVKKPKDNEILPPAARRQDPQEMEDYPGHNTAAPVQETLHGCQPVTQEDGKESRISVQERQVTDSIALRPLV", "type": "cell-based, mice", "conditions": "pre-treatment with 3.3 or 33 nM", "protocol": "as §1"}, "[12]": {"test_system": "TNFR", "type": "cell-based, mice", "conditions": "pre-treatment with 3.3 or 33 nM", "protocol": "as §1"}, "[13]": {"conditions": "Human, 3 × 0.5 mg/kg per diem, oral; Andersson, et al. (1975); cited from earlier work"}, "[14]": {"test_system": "erectile dysfunction", "conditions": "20 mg sublingual; cited from earlier work"}, "[15]": {"conditions": "digitoxin 0.3 mg/kg, proscillaridin […]"}, "[16]": {"conditions": "daily i.p. from Mean Visual Score of 2, digitoxin 0.3 mg/kg, proscillaridin […], Mann-Whitney"}}, "note": "“Also recorded” adds a separate entry of the source. Like-named read-outs stand apart in the source and are kept apart here."}
{"smiles": "C[C@@H]1O[C@@H](O[C@H]2C[C@@H](O)[C@]3(CO)[C@H]4[C@H](O)C[C@]5(C)[C@@H](C6=CC(=O)OC6)CC[C@]5(O)[C@@H]4CC[C@]3(O)C2)[C@H](O)[C@H](O)[C@H]1O", "note": "[Ouabain, ouabain]", "values": [{"measurement": "Partition Coefficient", "setting": "[1]", "value": "very low"}, {"measurement": "Half-life", "setting": "[2]; in vivo", "value": 21, "unit": "h"}, {"measurement": "Onset (m)", "setting": "[2]; onset of action", "value": "5-10 m"}, {"measurement": "Peak", "setting": "[2]; time to maximal effect", "value": "0.5 to 2", "unit": "h"}, {"measurement": "TNF-mediated NFκB activation (luciferase light units)", "setting": "[3]", "value": "reduced TNF-mediated NFκB activation in a dose-dependent fashion"}, {"measurement": "Serum conc.", "setting": "[4]", "value": 16, "unit": "ng/mL"}, {"measurement": "immune cell infiltrate into the joints (hematoxylin and eosin)", "setting": "[5]", "value": "decreased amounts of immune cell infiltrate"}, {"measurement": "disease and inflammation (clinical score, paw thickness), dosing every three days i.p.", "setting": "[6]; 0.9 mg/kg digitoxin or 0.6 mg/kg ouabain, i.p., days −3, 0, 3, 6, 9, 12 after boost", "value": "significantly less disease and inflammation"}, {"measurement": "onset of collagen arthritis, dosing every three days sublingual", "setting": "[6]; 0.9 mg/kg digitoxin or 0.6 mg/kg ouabain, sublingual, days −3, 0, 3, 6, 9, 12 after boost", "value": "significantly inhibited the onset of collagen arthritis; also recorded: effective in preventing"}, {"measurement": "development of CIA (Mean Visual Arthritis Score, Mean Paw Thickness), prevention study", "setting": "[6]; [15]", "value": "prevented the development of CIA"}, {"measurement": "average clinical arthritis scores compared to vehicle, prevention study", "setting": "[6]", "value": "significantly reduced"}, {"measurement": "prevention and treatment of collagen-induced arthritis (CIA)", "setting": "[6]", "value": "potently prevent and treat"}, {"measurement": "bioavailability by formulation", "setting": "[7]", "value": "higher bioavailability with injectable formulations"}, {"measurement": "Serum cytokine levels (TNF, IL-6 and IL-1beta) versus vehicle", "setting": "[8]", "value": "similar"}, {"measurement": "anti-type II collagen IgG1 level relative to vehicle", "setting": "[9]", "value": "reduced levels"}, {"measurement": "anti-type II collagen IgM level relative to vehicle", "setting": "[9]", "value": "reduced levels"}, {"measurement": "proliferation of T cells in response to stimulation through the T cell receptor", "setting": "[10]", "value": "did not alter proliferation"}, {"measurement": "CD40L-mediated activation of macrophage through CD40", "setting": "[11]", "value": "inhibits"}, {"measurement": "TNF-mediated activation of macrophage through TNFR", "setting": "[12]", "value": "inhibits"}]}
{"smiles": "C[C@@H]1O[C@@H](O[C@@H]2C=C3CC[C@@H]4[C@H](CC[C@]5(C)[C@@H](c6ccc(=O)oc6)CC[C@]45O)[C@@]3(C)CC2)[C@H](O)[C@H](O)[C@H]1O", "note": "[Proscillaridin, proscillaridin A]", "values": [{"measurement": "TNF-mediated NFκB activation (luciferase light units)", "setting": "[3]", "value": "reduced TNF-mediated NFκB activation in a dose-dependent fashion"}, {"measurement": "Serum conc.", "setting": "[13]", "value": 0.75, "unit": "ng/mL"}, {"measurement": "immune cell infiltrate into the joints (hematoxylin and eosin)", "setting": "[5]", "value": "decreased amounts of immune cell infiltrate"}, {"measurement": "Mean Paw Thickness, treatment of established arthritis", "setting": "[6]; [16]", "value": "statistically significant reductions"}, {"measurement": "Mean Visual Score, treatment of established arthritis", "setting": "[6]; [16]", "value": "statistically significant reductions"}, {"measurement": "development of CIA (Mean Visual Arthritis Score, Mean Paw Thickness), prevention study", "setting": "[6]; [15]", "value": "prevented the development of CIA"}, {"measurement": "average clinical arthritis scores compared to vehicle, prevention study", "setting": "[6]", "value": "significantly reduced"}, {"measurement": "prevention and treatment of collagen-induced arthritis (CIA)", "setting": "[6]", "value": "potently prevent and treat"}, {"measurement": "bioavailability by formulation", "setting": "[7]", "value": "higher bioavailability with injectable formulations"}, {"measurement": "Serum cytokine levels (TNF, IL-6 and IL-1beta) versus vehicle", "setting": "[8]", "value": "similar"}, {"measurement": "anti-type II collagen IgG1 level relative to vehicle", "setting": "[9]", "value": "reduced levels"}, {"measurement": "anti-type II collagen IgM level relative to vehicle", "setting": "[9]", "value": "reduced levels"}, {"measurement": "CD40L-mediated activation of macrophage through CD40", "setting": "[11]", "value": "inhibits"}, {"measurement": "TNF-mediated activation of macrophage through TNFR", "setting": "[12]", "value": "inhibits"}]}
{"smiles": "CCCc1nn(C)c2c(=O)[nH]c(-c3cc(S(=O)(=O)N4CCN(C)CC4)ccc3OCC)nc12", "note": "[sildenafil]", "values": [{"measurement": "safety and efficacy of sublingual administration", "setting": "[14]", "value": "safe and effective"}]}
